The results in this text go back to patent publication US20050228016A1, “TETRAHYDROQUINOLINES FOR MODULATING THE EXPRESSION OF EXOGENOUS GENES VIA AN ECDYSONE RECEPTOR COMPLEX” (priority 2002, published 2005).

The target in one data set is T1, Gal4DBD/AaEcR (DEF) (Aedes aegypti, UniProt P49880).
T1 construct: The wildtype D, E, and F domains from mosquito Aedes aegypti EcR; expressed in transfected cells; host or cells: 3T3 cells
Briefly: cell-based. The data set is classed as cell-based. As to conditions: for Fold Induction Average, AA_3T3V1 Assay 33 μM: 3T3 cells, 48 h, average of two wells. On the procedure:
3T3 cells were trypsinized and plated at 2.5×10^3 cells/well on a 96-well plate. After incubation for 24 h at 37° C. under 5% CO2, cells were transfected with the Gal4DBD/AaEcR (DEF) gene expression cassette and the reporter plasmid, pFRLuc, containing a 5× GAL4 response element and the firefly luciferase gene in serum free media using Superfect (Qiagen). After transfection for 4 h at 37° C., the cells were treated with ligand in serum media. […] Single dose testing was performed at 33 μM.

Data set [1] has as its target T2, Bombyx mori EcR (VP16-BmEcR, CVBE) (Bombyx mori, UniProt P49881).
T2 construct: expressed in transfected cells
T2 sequence (P49881 86-606): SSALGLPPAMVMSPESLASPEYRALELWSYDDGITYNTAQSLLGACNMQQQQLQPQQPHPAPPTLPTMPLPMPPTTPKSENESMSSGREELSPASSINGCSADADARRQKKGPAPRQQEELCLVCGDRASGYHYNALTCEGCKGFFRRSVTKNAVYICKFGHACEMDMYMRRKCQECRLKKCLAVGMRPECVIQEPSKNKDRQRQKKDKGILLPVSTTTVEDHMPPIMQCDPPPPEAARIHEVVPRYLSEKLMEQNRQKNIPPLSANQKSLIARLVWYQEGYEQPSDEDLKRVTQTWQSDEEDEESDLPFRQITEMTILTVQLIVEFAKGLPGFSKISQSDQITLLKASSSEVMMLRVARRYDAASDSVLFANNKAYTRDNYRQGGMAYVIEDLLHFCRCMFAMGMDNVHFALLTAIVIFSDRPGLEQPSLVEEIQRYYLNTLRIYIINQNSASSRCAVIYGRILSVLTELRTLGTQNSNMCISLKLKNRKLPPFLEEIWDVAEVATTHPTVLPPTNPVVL
The experiment in a line: Z3 assay (HEK-293 clone Z3 with CVBE and 6x EcRE LacZ, β-galactosidase reporter). The data set is classed as cell-based. As to conditions: average of two wells; for Fold Induction Average, Z3V1 Assay 33 μM: 48 h. From the text: Dr. F. Gage provided a population of stably transformed cells containing CVBE and 6× EcRE as described in (Suhr et. al. 1998). Human 293 kidney cells, also referred to as HEK-293 cells, were sequentially infected with retroviral vectors encoding first the switch construct CVBE, and subsequently the reporter construct 6× EcRE Lac Z. The switch construct contained the coding sequence for amino acids 26-546 from Bombyx nori EcR (BE) (Iatrou) inserted in frame and downstream of the VP16 transactivation domain (VBE). A synthetic ATG start codon was placed under the control of cytomegalovirus (CVBE) immediate early promoter and flanked by long terminal repeats (LTR). The reporter-construct contained six copies of the ecdysone response element (EcRE) binding site placed upstream of LacZ and flanked on both sides with LTR sequences (6× EcRE).
Dilution cloning was used to isolate individual clones. Clones were selected using 450 μg/ml G418 and 100 ng/ml puromycin. Individual clones were evaluated based on their response in the presence and absence of test ligands.
Human 293 kidney cells stably transformed with CVBE and 6× EcRE lack were maintained in Minimum Essential Medium (Mediates, 10-010-CV) containing 10%.FBS (Life Technologies, 26140-087),[…] G418 (Mediates, 30-234-CR), and […] (Sigma, P-7255), at 37° C. in an atmosphere containing 5% CO2 and were subculture when they reached 75% confluence.
Z3 cells were seeded into 96-well tissue culture plates at a concentration of 2.5×10^3 cells per well and incubated at 37° C. in 5% CO2 for twenty-four hours. Stock solutions of ligands were prepared in DMSO. Ligand stock solutions were diluted 100.fold in media and 50 μL of this diluted ligand solution (33 μM) was added to cells.
Reporter gene expression was evaluated 48 hours after treatment of cells, β-galactosidase activity was measured using Gal Screen™ bioluminescent reporter gene assay system from Tropix (GSY1000).
Flanking both constructs are long terminal repeats, G418 and puromycin are selectable markers, CMV is the cytomegalovirus promoter, VBE is coding sequence for amino acids 26-546 from Bombyx mori EcR inserted downstream of the VP16 transactivation domain, 6× EcRE is six copies of the ecdysone response element, lacZ encodes for the reporter enzyme β-galactosidase.

Each structure is given as a SMILES string.

T1 sequence (P28704 286-520 A311G/G315S/G445S/I449V): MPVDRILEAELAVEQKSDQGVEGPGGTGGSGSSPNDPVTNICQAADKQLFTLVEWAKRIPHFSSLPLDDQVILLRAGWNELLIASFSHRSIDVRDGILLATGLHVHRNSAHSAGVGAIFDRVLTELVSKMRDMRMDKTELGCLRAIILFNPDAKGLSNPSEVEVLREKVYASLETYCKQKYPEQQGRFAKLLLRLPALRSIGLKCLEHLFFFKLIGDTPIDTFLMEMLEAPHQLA
T1 sequence (P49880 405-776): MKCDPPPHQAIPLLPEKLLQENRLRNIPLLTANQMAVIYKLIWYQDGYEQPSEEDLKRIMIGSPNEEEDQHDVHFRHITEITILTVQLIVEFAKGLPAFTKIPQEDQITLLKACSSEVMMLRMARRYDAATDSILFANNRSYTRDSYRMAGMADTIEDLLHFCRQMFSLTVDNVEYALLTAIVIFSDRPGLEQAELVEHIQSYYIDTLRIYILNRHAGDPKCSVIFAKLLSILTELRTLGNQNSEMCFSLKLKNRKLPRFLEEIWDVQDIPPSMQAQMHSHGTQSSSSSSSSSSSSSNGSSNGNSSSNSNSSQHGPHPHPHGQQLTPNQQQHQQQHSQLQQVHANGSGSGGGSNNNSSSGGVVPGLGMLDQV

Take `C[C@H]1C[C@H](Nc2ccccc2)c2ccccc2N1C(=O)c1ccc(C(F)(F)F)cc1` (relative stereo) [Compound I-71]: at Gal4DBD/AaEcR (DEF), the “Fold Induction Average, AA_3T3V1 Assay 33 μM” value is 291 fold. Further, the “Fold Induction Average, Z3V1 Assay 33 μM” value in data set [1] is 2 fold.
As to `Cc1ccc(N[C@H]2C[C@H](C)N(C(=O)c3ccccc3)c3ccc(C)cc32)cc1` (relative stereo) [Compound I-72], the “Fold Induction Average, AA_3T3V1 Assay 33 μM” value on Gal4DBD/AaEcR (DEF) was 114 fold. Further, in data set [1], the “Fold Induction Average, Z3V1 Assay 33 μM” value is recorded as 1 fold.
The matching figures for `Cc1ccc(N[C@H]2C[C@H](C)N(C(=O)c3cccc(F)c3)c3ccc(C)cc32)cc1` (relative stereo) [Compound I-73]: 207 fold and 1 fold.
For `Cc1ccc(N[C@H]2C[C@H](C)N(C(=O)c3ccccc3C(F)(F)F)c3ccc(C)cc32)cc1` (relative stereo) [Compound I-74] the same measures were 22 fold and 1 fold.
With `Cc1ccc(N[C@H]2C[C@H](C)N(C(=O)c3cccc(C(F)(F)F)c3)c3ccc(C)cc32)cc1` (relative stereo) [Compound I-75], the “Fold Induction Average, AA_3T3V1 Assay 33 μM” value on Gal4DBD/AaEcR (DEF) came out at 13 fold. In data set [1], the “Fold Induction Average, Z3V1 Assay 33 μM” value is reported as 2 fold.
`Cc1ccc(N[C@H]2C[C@H](C)N(C(=O)c3ccc(C(F)(F)F)cc3)c3ccc(C)cc32)cc1` (relative stereo) [Compound I-76]: the “Fold Induction Average, AA_3T3V1 Assay 33 μM” value on Gal4DBD/AaEcR (DEF) is on record as 741 fold. In addition, the “Fold Induction Average, Z3V1 Assay 33 μM” value in data set [1] was 1 fold.
For `C[C@H]1C[C@H](Nc2ccc(F)cc2)c2cc(F)ccc2N1C(=O)c1cccc(F)c1` (relative stereo) [Compound I-77], the “Fold Induction Average, AA_3T3V1 Assay 33 μM” value at Gal4DBD/AaEcR (DEF) is 272 fold. Moreover, the “Fold Induction Average, Z3V1 Assay 33 μM” value in data set [1] stood at 153 fold.
The matching figures for `C[C@H]1C[C@H](Nc2ccc(F)cc2)c2cc(F)ccc2N1C(=O)c1ccccc1C(F)(F)F` (relative stereo) [Compound I-78]: 33 fold and 3 fold.
The matching figures for `C[C@H]1C[C@H](Nc2ccc(F)cc2)c2cc(F)ccc2N1C(=O)c1cccc(C(F)(F)F)c1` (relative stereo) [Compound I-79]: 595 fold and 137 fold.
The matching figures for `C[C@H]1C[C@H](Nc2ccc(F)cc2)c2cc(F)ccc2N1C(=O)c1ccc(C(F)(F)F)cc1` (relative stereo) [Compound I-80]: 914 fold and 37 fold.
On to `COc1cccc(C(=O)N2c3ccccc3[C@@H](Nc3ccccc3)C[C@@H]2C)c1` (relative stereo) [Compound I-81], for which, on Gal4DBD/AaEcR (DEF), the “Fold Induction Average, AA_3T3V1 Assay 33 μM” value was 9 fold. Further, the “Fold Induction Average, Z3V1 Assay 33 μM” value in data set [1] is 1 fold.
The matching figures for `Cc1ccc(C(=O)N2c3ccccc3[C@@H](Nc3ccccc3)C[C@@H]2C)cc1` (relative stereo) [Compound I-82]: 79 fold and 1 fold.
Turning to `COc1ccc(C(=O)N2c3ccccc3[C@@H](Nc3ccccc3)C[C@@H]2C)cc1` (relative stereo) [Compound I-83], the “Fold Induction Average, AA_3T3V1 Assay 33 μM” value on Gal4DBD/AaEcR (DEF) was determined as 345 fold. Further, the “Fold Induction Average, Z3V1 Assay 33 μM” value in data set [1] is 8 fold.
For the compound `COC(=O)c1ccc(C(=O)N2c3ccccc3[C@@H](Nc3ccccc3)C[C@@H]2C)cc1` (relative stereo) [Compound I-84], on Gal4DBD/AaEcR (DEF), the “Fold Induction Average, AA_3T3V1 Assay 33 μM” value is recorded as 508 fold. In data set [1], the “Fold Induction Average, Z3V1 Assay 33 μM” value was found to be 3 fold.
For `Cc1ccc(N[C@H]2C[C@H](C)N(C(=O)c3cccc(C)c3)c3ccc(C)cc32)cc1` (relative stereo) [Compound I-85] the same measures were 3 fold and 1 fold.
For `Cc1ccc(N[C@H]2C[C@H](C)N(C(=O)c3ccc(C)cc3)c3ccc(C)cc32)cc1` (relative stereo) [Compound I-87] the same measures were 250 fold and 1 fold.
The matching figures for `COc1ccc(C(=O)N2c3ccc(C)cc3[C@@H](Nc3ccc(C)cc3)C[C@@H]2C)cc1` (relative stereo) [Compound I-88]: 213 fold and 1 fold.
For the compound `COC(=O)c1ccc(C(=O)N2c3ccc(C)cc3[C@@H](Nc3ccc(C)cc3)C[C@@H]2C)cc1` (relative stereo) [Compound I-89], on Gal4DBD/AaEcR (DEF), the “Fold Induction Average, AA_3T3V1 Assay 33 μM” value came out at 30 fold. The “Fold Induction Average, Z3V1 Assay 33 μM” value in data set [1] turned out to be 1 fold.
With `Cc1cccc(C(=O)N2c3ccc(F)cc3[C@@H](Nc3ccc(F)cc3)C[C@@H]2C)c1` (relative stereo) [Compound I-90], the “Fold Induction Average, AA_3T3V1 Assay 33 μM” value at Gal4DBD/AaEcR (DEF) amounted to 433 fold. Besides, in data set [1], the “Fold Induction Average, Z3V1 Assay 33 μM” value came to 33 fold.
Turning to `COc1cccc(C(=O)N2c3ccc(F)cc3[C@@H](Nc3ccc(F)cc3)C[C@@H]2C)c1` (relative stereo) [Compound I-91], the “Fold Induction Average, AA_3T3V1 Assay 33 μM” value on Gal4DBD/AaEcR (DEF) stood at 542 fold. In data set [1], the “Fold Induction Average, Z3V1 Assay 33 μM” value turned out to be 107 fold.
As to `Cc1ccc(C(=O)N2c3ccc(F)cc3[C@@H](Nc3ccc(F)cc3)C[C@@H]2C)cc1` (relative stereo) [Compound I-92], on Gal4DBD/AaEcR (DEF), the “Fold Induction Average, AA_3T3V1 Assay 33 μM” value was 229 fold. Also, the “Fold Induction Average, Z3V1 Assay 33 μM” value in data set [1] is given as 100 fold.
The matching figures for `COc1ccc(C(=O)N2c3ccc(F)cc3[C@@H](Nc3ccc(F)cc3)C[C@@H]2C)cc1` (relative stereo) [Compound I-93]: 378 fold and 87 fold.
For `C[C@H]1C[C@H](Nc2ccccc2)c2ccccc2N1C(=O)c1ccc(C(C)(C)C)cc1` (relative stereo) [Compound I-134] the same measures were 39 fold and 1 fold.
As for `COc1ccc(C(=O)N2c3ccc(C)cc3[C@@H](Nc3ccc(C)cc3)C[C@H]2C)cc1` (stereo in doubt) [Compound I-98, cis-2,6-dimethyl-1-(4-methoxybenzoyl)-4-(4-methylphenylamino)-1,2,3,4-tetrahydroquinoline], the fold induction at 33 µM at Gal4DBD/AaEcR (DEF) (NIH3T3, read-out: Fold Induction Average, AA_3T3V1 Assay 33 μM) was found to be 1; in data set [1] (HEK293, 48 h, read-out: Fold Induction Average, Z3V1 Assay 33 μM), 1.
`CCc1ccc(C(=O)N2c3ccc(F)cc3C(Nc3ccc(F)cc3)CC2C)cc1` (centres unmarked) [Compound I-36]: the “Fold Induction Average, AA_3T3V1 Assay 33 μM” value on Gal4DBD/AaEcR (DEF) is 113 fold. Further, the “Fold Induction Average, Z3V1 Assay 33 μM” value in data set [1] stood at 33 fold.
For `COC(=O)c1ccc(C(=O)N2c3ccc(F)cc3C(Nc3ccc(F)cc3)CC2C)cc1` (centres unmarked) [Compound I-37] the same measures were 37 fold and 1 fold.
For `CC1CC(Nc2ccc(F)cc2)c2cc(F)ccc2N1C(=O)c1ccc2c(c1)OCO2` (centres unmarked) [Compound I-38] the same measures were 76 fold and 10 fold.
The matching figures for `COc1cccc(C(=O)N2c3ccc(C)cc3C(Nc3ccc(C)cc3)CC2C)c1C` (centres unmarked) [Compound I-54]: 35 fold and 7 fold.
